Test results as given in PMC5190074, “BET inhibition as a new strategy for the treatment of gastric cancer” (Oncotarget, 2016).

Target: T1, BRD4(1), first bromodomain of BRD4 (Homo sapiens, UniProt O60885)
T1 construct: first bromodomain; BRD4_HUMAN O60884-1 fragment 44-168 (crystallography)
Assay: biochemical
Parameters: thermal shift assay, SAR of isoxazole compounds against BRD4(1)
Conditions: read-out: ΔTm Shift (oC)
Protocol: The recombinant bromodomains at 2 μM were mixed with 10 μM inhibitors. The assays and data evaluation for melting temperatures were performed using a Real-Time PCR Mx3005p machine (Stratagene) and the protocols previously described. Experiments profiling the final compound (PNZ5) were performed in quadruplicates. Isoxazoles have been explored previously as BET bromodomain inhibitors. We have developed PNZ5, a new isoxazole-based inhibitor originating from the lead compound S1 (Figure 1). PNZ5 was developed as the result of a structure-based lead optimisation program. Dihydroindene S1 was identified as a ligand against BRD4(1) (pIC50 5.9). Investigation of the co-crystal structure of S1 with BRD4(1) [PDB ID 4GPJ] identified a number of positions for potential optimisation: addition of a carbonyl group at C-3 was envisaged to benefit from hydrogen-bonds (H-bonds) to a network of conserved water molecules; replacement of C-2 with a nitrogen would minimise interactions in the narrow ZA channel of BRD4(1) and N-substitution could provide further binding interactions with the protein; and alternative substitution of the hydroxyl at C-1 would provide a handle for further optimisation. […] The three best compounds, S3, S5 and S7, were destined to be separated into their component enantiomers for further evaluation (Supplementary Table 2). […]

ΔTm at 10 µM: 10.1 °C
Structure (SMILES): Cc1noc(C)c1-c1ccc2c(c1)C(c1ccccc1)N(C)C2=O (racemic) [S3]
